Experimental data reported in ChEMBL document CHEMBL4507265 (2021).

Experiments:
[1] = biological target: Platelet-activating factor receptor (Homo sapiens) (UniProt P25105); experiment: Inhibition of Platelet Activating Factor (PAF) at 10 µM in the Eurofins-Panlabs radioligand binding assay (Eurofins_assay_265010); settings: Compound concentration 10.0 uM
[2] = biological target: ATP-sensitive inward rectifier potassium channel 11 (Cricetulus griseus) (UniProt A0A3L7HHE1); experiment: Inhibition of Potassium Channel [KATP] at 10 µM in the Eurofins-Panlabs radioligand binding assay (Eurofins_assay_265600); settings: Cricetinae; Compound concentration 10.0 uM
[3] = biological target: Prostaglandin E2 receptor EP4 subtype (Homo sapiens) (UniProt P35408); experiment: Inhibition of Prostanoid EP4 at 10 µM in the Eurofins-Panlabs radioligand binding assay (Eurofins_assay_268420); design: ligand concentration 1 nM; settings: Compound concentration 10.0 uM
[4] = biological target: Serine/threonine-protein kinase BRSK2 (Homo sapiens) (UniProt Q8IWQ3); settings: Compound concentration 1000.0 nM
[5] = biological target: Cyclin-dependent kinase 4 (Homo sapiens) (UniProt P11802); settings: Compound concentration 1000.0 nM
[6] = biological target: Discoidin domain-containing receptor 2 (Homo sapiens) (UniProt Q16832); settings: Compound concentration 1000.0 nM
[7] = biological target: Serine/threonine-protein kinase 17A (Homo sapiens) (UniProt Q9UEE5); settings: Compound concentration 1000.0 nM
[8] = tested on: Epidermal growth factor receptor (Homo sapiens), P00533 [UNDEFINED MUTATION]; settings: Compound concentration 1000.0 nM
[9] = biological target: Vascular endothelial growth factor receptor 1 (Homo sapiens) (UniProt P17948); settings: Compound concentration 1000.0 nM
[10] = biological target: Vascular endothelial growth factor receptor 3 (Homo sapiens) (UniProt P35916); settings: Compound concentration 1000.0 nM
[11] = biological target: Cyclin-G-associated kinase (Homo sapiens) (UniProt O14976); settings: Compound concentration 1000.0 nM
[12] = biological target: Mitogen-activated protein kinase 9 (Homo sapiens) (UniProt P45984); settings: Compound concentration 1000.0 nM
[13] = biological target: Mitogen-activated protein kinase kinase kinase 1 (Homo sapiens) (UniProt Q13233); settings: Compound concentration 1000.0 nM
[14] = biological target: D(1A) dopamine receptor (Homo sapiens) (UniProt P21728); settings: Compound concentration 10.0 uM
[15] = biological target: D(1B) dopamine receptor (Homo sapiens) (UniProt P21918); settings: Compound concentration 10.0 uM
[16] = biological target: Beta-3 adrenergic receptor (Homo sapiens) (UniProt P13945); settings: Compound concentration 10.0 uM
[17] = biological target: Adenosine receptor A1 (Homo sapiens) (UniProt P30542); settings: Compound concentration 10.0 uM
[18] = biological target: T1, Alpha-2A adrenergic receptor (Homo sapiens) (UniProt P08913); settings: Compound concentration 10.0 uM
T1 sequence (whole entry): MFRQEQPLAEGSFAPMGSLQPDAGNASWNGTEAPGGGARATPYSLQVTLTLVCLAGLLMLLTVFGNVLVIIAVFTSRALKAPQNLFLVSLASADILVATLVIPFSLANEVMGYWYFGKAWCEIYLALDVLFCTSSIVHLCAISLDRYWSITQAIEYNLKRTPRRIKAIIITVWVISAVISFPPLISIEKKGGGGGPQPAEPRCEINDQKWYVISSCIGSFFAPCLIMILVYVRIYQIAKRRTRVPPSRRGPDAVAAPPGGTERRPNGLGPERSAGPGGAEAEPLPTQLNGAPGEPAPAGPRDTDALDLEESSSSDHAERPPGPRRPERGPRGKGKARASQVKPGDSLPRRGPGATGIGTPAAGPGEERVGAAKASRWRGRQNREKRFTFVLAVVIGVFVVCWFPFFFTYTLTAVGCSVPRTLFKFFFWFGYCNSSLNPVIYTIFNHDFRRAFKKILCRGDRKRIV

[19] = biological target: Endothelin receptor type B (Homo sapiens) (UniProt P24530); settings: Compound concentration 10.0 uM
[20] = biological target: Histamine H1 receptor (Homo sapiens) (UniProt P35367); settings: Compound concentration 10.0 uM
[21] = biological target: T2, Muscarinic acetylcholine receptor M2 (Homo sapiens) (UniProt P08172); settings: Compound concentration 10.0 uM
T2 sequence (whole entry): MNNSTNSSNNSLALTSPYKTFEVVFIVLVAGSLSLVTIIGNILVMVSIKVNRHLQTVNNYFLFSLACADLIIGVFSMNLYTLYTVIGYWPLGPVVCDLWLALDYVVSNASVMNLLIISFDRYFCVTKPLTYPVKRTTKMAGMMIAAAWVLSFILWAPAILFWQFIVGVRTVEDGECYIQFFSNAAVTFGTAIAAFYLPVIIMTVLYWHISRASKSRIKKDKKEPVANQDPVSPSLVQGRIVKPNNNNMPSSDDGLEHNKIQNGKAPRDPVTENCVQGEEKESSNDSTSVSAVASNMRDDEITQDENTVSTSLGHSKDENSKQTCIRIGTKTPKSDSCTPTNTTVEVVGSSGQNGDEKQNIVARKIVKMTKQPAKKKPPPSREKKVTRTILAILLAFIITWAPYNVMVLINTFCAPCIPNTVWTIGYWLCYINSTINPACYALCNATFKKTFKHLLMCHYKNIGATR

[22] = biological target: Delta-type opioid receptor (Homo sapiens) (UniProt P41143); settings: Compound concentration 10.0 uM
[23] = biological target: T3, 5-hydroxytryptamine receptor 1A (Homo sapiens) (UniProt P08908); settings: Compound concentration 10.0 uM
T3 sequence (whole entry): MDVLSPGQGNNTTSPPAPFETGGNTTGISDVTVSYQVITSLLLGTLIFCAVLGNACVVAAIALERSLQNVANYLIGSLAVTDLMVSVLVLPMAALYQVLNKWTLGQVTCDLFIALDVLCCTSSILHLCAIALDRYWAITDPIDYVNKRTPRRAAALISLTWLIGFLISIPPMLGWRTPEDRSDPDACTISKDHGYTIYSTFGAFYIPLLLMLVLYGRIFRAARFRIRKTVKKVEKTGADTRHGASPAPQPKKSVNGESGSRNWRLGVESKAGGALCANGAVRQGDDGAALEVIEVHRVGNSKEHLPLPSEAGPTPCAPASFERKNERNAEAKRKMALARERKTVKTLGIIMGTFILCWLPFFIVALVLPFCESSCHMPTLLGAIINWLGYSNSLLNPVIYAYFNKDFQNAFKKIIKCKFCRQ

[24] = biological target: Sodium-dependent noradrenaline transporter (Homo sapiens) (UniProt P23975); settings: Compound concentration 10.0 uM

Sequence of Vascular endothelial growth factor receptor 3 (Homo sapiens) (P35916 whole entry): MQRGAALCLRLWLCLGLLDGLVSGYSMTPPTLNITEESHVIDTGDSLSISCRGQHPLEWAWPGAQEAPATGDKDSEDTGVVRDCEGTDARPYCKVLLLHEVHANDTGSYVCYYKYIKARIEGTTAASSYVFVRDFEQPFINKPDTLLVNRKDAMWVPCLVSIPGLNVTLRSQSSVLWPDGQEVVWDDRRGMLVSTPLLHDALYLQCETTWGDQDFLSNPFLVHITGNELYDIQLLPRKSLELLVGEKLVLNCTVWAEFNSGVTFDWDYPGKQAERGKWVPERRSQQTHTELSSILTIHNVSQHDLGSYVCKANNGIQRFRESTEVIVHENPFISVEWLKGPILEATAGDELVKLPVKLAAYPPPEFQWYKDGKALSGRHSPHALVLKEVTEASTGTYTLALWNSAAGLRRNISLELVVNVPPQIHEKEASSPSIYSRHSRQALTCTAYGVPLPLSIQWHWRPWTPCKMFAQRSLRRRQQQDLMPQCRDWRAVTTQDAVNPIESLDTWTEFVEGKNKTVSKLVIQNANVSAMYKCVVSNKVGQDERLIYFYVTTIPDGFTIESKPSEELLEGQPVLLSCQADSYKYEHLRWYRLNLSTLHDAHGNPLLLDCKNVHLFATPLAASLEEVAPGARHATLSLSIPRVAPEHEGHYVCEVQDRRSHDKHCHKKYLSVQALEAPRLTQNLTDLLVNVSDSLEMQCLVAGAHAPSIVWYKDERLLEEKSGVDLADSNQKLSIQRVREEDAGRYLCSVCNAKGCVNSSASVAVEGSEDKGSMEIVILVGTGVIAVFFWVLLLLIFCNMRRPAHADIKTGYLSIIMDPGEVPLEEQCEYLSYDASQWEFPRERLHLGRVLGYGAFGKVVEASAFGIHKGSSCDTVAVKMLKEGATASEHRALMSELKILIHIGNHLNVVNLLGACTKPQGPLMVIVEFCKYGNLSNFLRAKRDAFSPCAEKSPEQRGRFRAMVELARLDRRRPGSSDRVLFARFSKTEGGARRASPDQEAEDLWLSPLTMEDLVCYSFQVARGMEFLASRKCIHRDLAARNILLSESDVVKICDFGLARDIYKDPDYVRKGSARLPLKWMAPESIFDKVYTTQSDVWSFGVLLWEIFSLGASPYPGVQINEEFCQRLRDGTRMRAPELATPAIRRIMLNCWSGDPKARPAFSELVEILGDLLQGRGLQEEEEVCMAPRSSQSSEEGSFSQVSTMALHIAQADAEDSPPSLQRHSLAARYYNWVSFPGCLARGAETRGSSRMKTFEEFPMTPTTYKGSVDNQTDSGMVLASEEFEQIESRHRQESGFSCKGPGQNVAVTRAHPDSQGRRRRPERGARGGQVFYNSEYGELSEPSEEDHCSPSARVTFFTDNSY
Sequence of Discoidin domain-containing receptor 2 (Homo sapiens) (Q16832 whole entry, the tested form may be a part): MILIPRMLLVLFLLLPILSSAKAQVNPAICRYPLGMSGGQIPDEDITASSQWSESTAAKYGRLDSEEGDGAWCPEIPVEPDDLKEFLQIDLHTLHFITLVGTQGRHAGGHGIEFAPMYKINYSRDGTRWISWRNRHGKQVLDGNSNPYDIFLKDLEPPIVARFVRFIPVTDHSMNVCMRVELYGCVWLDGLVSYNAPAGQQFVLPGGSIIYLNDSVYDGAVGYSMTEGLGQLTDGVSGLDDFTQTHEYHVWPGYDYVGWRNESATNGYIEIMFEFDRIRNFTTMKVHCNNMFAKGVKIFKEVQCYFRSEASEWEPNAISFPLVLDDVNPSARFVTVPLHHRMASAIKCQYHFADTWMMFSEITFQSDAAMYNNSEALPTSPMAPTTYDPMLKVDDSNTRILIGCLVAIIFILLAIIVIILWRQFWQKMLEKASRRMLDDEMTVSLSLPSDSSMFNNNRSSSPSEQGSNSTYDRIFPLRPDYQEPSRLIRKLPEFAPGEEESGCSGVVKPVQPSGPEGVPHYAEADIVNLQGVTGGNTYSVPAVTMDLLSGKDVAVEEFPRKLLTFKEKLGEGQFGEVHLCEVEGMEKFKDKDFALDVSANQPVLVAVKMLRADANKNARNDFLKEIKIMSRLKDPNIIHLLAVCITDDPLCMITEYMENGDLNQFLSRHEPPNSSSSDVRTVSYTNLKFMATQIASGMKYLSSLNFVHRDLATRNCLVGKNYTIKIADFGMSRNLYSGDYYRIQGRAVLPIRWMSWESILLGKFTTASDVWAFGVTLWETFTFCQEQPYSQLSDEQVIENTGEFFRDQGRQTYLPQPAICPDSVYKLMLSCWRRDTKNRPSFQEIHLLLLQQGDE
Sequence of Mitogen-activated protein kinase 9 (Homo sapiens) (P45984 whole entry, looked up): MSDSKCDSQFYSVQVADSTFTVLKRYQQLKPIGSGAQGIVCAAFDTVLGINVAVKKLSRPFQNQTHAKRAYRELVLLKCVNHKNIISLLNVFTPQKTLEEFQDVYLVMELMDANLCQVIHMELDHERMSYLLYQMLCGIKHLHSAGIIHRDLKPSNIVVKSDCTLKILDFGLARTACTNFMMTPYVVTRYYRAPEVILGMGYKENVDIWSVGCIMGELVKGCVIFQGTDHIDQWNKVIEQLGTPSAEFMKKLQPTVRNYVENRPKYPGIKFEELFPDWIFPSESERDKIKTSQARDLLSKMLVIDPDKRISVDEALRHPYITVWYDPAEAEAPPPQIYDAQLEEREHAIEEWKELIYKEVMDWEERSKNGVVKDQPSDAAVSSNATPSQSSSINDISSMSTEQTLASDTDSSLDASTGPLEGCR
Sequence of Vascular endothelial growth factor receptor 1 (Homo sapiens) (P17948 whole entry): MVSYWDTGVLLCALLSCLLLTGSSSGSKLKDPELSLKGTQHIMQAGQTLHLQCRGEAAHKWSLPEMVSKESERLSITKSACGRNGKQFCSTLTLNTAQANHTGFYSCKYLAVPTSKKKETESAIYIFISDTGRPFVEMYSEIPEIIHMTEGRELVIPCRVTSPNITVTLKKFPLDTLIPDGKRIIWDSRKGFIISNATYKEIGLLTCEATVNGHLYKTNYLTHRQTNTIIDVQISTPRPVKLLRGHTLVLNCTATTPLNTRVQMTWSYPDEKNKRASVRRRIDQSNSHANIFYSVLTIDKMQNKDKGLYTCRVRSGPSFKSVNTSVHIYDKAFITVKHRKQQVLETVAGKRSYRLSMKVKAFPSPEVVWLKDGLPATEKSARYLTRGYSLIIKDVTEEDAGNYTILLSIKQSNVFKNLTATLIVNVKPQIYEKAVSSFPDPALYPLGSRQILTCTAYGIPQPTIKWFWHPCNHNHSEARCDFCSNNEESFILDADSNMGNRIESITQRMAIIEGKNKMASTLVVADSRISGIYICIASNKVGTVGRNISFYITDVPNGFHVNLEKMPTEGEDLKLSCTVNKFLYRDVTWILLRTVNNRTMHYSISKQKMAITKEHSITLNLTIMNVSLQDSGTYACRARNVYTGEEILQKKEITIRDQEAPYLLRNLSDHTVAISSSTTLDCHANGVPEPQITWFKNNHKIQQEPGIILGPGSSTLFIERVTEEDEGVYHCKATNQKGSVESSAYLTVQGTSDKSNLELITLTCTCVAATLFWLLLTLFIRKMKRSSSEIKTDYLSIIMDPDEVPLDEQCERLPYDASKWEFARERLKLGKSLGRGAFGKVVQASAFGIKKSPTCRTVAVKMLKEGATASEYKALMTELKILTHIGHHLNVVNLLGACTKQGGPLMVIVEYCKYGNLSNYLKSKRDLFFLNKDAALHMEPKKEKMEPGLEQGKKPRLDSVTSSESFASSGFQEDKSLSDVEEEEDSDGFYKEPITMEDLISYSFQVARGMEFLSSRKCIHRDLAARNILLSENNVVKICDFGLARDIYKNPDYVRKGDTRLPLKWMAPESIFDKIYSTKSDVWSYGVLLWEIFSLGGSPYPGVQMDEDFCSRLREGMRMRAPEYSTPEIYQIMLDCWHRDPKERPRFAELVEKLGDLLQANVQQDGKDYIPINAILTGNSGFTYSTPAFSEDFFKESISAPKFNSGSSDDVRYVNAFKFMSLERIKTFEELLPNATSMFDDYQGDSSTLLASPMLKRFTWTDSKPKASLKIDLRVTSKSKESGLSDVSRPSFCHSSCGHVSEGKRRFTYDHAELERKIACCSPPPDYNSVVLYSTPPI
Sequence of Serine/threonine-protein kinase 17A (Homo sapiens) (Q9UEE5 whole entry): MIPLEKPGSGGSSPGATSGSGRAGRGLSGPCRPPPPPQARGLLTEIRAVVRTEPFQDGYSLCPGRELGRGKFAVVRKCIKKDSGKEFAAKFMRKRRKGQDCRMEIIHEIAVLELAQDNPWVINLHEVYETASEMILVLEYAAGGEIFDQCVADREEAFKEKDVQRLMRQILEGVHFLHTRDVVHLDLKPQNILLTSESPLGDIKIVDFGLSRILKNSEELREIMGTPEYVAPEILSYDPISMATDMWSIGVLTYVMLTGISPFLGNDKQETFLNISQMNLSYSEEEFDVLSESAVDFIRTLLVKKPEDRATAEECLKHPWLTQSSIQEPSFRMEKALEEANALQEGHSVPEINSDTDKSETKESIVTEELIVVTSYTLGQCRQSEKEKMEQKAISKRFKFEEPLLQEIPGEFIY
Sequence of Cyclin-dependent kinase 4 (Homo sapiens) (P11802 whole entry, the tested form may be a part): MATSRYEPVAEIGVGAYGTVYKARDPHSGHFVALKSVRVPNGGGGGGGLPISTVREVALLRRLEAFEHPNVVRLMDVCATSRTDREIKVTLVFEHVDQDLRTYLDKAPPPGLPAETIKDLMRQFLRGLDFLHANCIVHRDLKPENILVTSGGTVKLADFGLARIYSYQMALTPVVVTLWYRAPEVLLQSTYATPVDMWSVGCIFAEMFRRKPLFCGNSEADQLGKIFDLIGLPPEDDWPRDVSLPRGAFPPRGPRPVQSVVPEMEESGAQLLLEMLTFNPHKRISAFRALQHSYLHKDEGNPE
Sequence of Delta-type opioid receptor (Homo sapiens) (P41143 whole entry): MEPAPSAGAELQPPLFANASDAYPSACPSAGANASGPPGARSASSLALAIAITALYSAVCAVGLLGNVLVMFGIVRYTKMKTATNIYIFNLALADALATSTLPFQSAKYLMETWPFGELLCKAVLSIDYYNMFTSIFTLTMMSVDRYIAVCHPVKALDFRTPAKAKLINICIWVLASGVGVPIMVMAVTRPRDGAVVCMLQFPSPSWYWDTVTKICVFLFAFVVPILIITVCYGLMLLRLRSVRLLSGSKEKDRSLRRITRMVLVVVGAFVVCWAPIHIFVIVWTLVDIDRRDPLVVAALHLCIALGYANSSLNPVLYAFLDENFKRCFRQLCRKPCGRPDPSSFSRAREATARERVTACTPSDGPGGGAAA

NS(=O)(=O)c1cc(NC(=O)Cc2ccccc2)ccc1Oc1cccc(Cl)c1 [BAY-1797]
inactive: inhibition [1] -2% | inhibition [2] -9% | inhibition [3] 21% | residual activity [4] 91% | residual activity [5] 88% | residual activity [6] 87% | residual activity [7] 94% | residual activity [8] 86% | residual activity [9] 80% | residual activity [10] 79% | residual activity [11] 99% | residual activity [12] 83% | residual activity [13] 66% | inhibition [14] 21.6% | inhibition [15] 27.7% | inhibition [16] 46.3% | inhibition [17] 35% | inhibition [18] 26% | inhibition [19] -1% | inhibition [20] 15% | inhibition [21] 4% | inhibition [22] 4% | inhibition [23] 7% | inhibition [24] 47%

NS(=O)(=O)c1cc(NC(=O)C2(c3ccccc3Cl)CC2)ccc1Oc1cccc(Cl)c1 [BAY-207]
inactive: residual activity [4] 87% | residual activity [5] 100% | residual activity [6] 96% | residual activity [7] 85% | residual activity [8] 96% | residual activity [9] 100% | residual activity [10] 67% | residual activity [11] 76% | residual activity [12] 100% | residual activity [13] 100% | inhibition [14] 3.57% | inhibition [15] 20.8% | inhibition [16] -5.77%
